Results: patent publication US20070032522A1, “Antiviral agents” (priority 2005, published 2007)

Test system: HCV replicon-containing cells (Huh7/Clone A)
Assay: HCV Replicon Assay
Format: cell-based
Settings: Hepatitis C virus, Huh-7, 48 hours incubation, HCV replicon RNA by RT-qPCR normalized to total RNA, read-out: IC50 of inhibition of HCV replication
Description: The HCV replicon assay is a cell-culture system that mimics in vivo HCV replication and provides a system to study HCV replication in vitro. It was created by transfecting cloned viral RNA derived from a consensus HCV genomic sequence into human Huh7 hepatoma cells that are semi-permissive for viral RNA production (Lohmann V., Korner F., Koch J.-O., Herian U., Theilmann L. and Bartenschlager R. (1999). Replication of subgenomic Hepatitis C virus RNAs in a hepatoma cell line. Science 285, 110-113 and Blight K. J., Kolykhalov A. A. and Rice C. M. (2000). Efficient initiation of HCV RNA Replication in cell culture. Science 290, 972-1974). […] Replicon-containing cells autonomously and persistently replicate HCV RNA that can be measured quantitatively by real-time qPCR. Therefore, the replicon system facilitates quantitative assessment of anti-viral activity by monitoring changes in HCV RNA replication in a cell-based assay. […]
Total RNA eluted in 130 μl of RNase-freed H2O was quantitated by the RiboGreen Assay according to the supplier's protocol (Molecular Probe). […] RNA samples in the black microplate were mixed with 95 μl of diluted RiboGreen reagent (1:250 dilution in TE buffer) and sample fluorescence was measured using a fluorescence microplate reader at standard fluorescein wavelengths (excitation ˜480 nm, emission ˜520 nm). […]

## O=C(OCc1ccc(Cl)cc1)c1cn(Cc2ccc(Cl)cc2)c2cc(N3CCNCC3)c(F)cc2c1=O [Compound 1, 1-(4-chlorobenzyl)-6-fluoro-4-oxo-7-piperazin-1-yl-1,4-dihydro-quinoline-3-carboxylic acid 4-chlorobenzyl ester]
  IC50: < 5 µM
